According to patent US8324390B2, “Tetrazole-substituted anthranilamides as pesticides” (Bayer CropScience AG, priority 2008, dated 2012):
Like-named read-outs stand apart in the source and are kept apart here.

Assays:
[1] = log P determination by HPLC (EEC Directive 79/831 Annex V.A8); format: physicochemical
Description: The measurements were carried out using an Agilent 1100 LC system with a 50*4.6 Zorbax Eclipse C18 1.8 μm column (oven temperature 55° C., flow rate 2.0 ml/min).
The following mobile phases were used:
Mobile phase A: acetonitrile+1000 μl of formic acid/l
Mobile phase B: Millipore water+900 μl of formic acid/l

[2] = tested on: caterpillars of the armyworm (Spodoptera frugiperda); assay: Spodoptera frugiperda test (SPODFR spray treatment); format: in vivo; conditions: Spodoptera frugiperda, foliar, read-out: effect in % (caterpillars killed)
Source text: (§1) Solvent: 78.0 parts by weight of acetone

[3] = tested on: green peach aphid (Myzus persicae); assay: Myzus test (MYZUPE spray treatment); format: in vivo; conditions: Myzus persicae, foliar, read-out: effect in % (aphids killed)
Source text: Solvent: 78 parts by weight of acetone
as §1

[4] = tested on: larvae of the mustard beetle (Phaedon cochleariae); assay: Phaedon test (PHAECO spray treatment); conditions: Phaedon cochleariae, in Brassica rapa, foliar, read-out: effect in % (beetle larvae killed)
[5] = reversed-phase HPLC, Zorbax Eclipse C18 column, determined by HPLC according to EEC Directive 79/831 Annex V.A8, read-out: log P
[6] = application rate 100 g/ha, maize leaf discs
[7] = application rate 100 g/ha, Chinese cabbage leaf discs
[8] = reversed-phase HPLC, Zorbax Eclipse C18 column, by HPLC according to EEC Directive 79/831 Annex V.A8, read-out: log P

Row | chromatographic logP [1, 5] | chromatographic logP [1, 8] | SMILES | chromatographic logP ([1]; log P) | pest or weed control at 100 g/ha ([2]; in Zea mays) [%] | pest or weed control at 100 g/ha ([3]; in Brassica rapa) [%] | pest or weed control at 100 g/ha [4] [%] | pest or weed control at 100 g/ha [2, 6] [%] | pest or weed control at 100 g/ha [3, 7] [%] | chromatographic logP ([1]; by HPLC according to EEC Directive 79/831 Annex V.A8, read-out: log P)
1 |  |  | Cc1cc(C#N)cc(C(=O)NC(C)C(F)(F)F)c1NC(=O)c1cc(Cn2nnc(C(F)(F)F)n2)nn1-c1ncccc1Cl (stereo not shown) [Example 433] | 3.25 | ≥ 80 | ≥ 80 | ≥ 80 |  |  | 
2 | 3.36 |  | CCNC(=O)c1cc(Br)cc(C)c1NC(=O)c1cc(Cn2nnc(C(F)(F)F)n2)nn1-c1ncccc1Br [Example 411] |  |  |  | ≥ 80 | ≥ 80 | ≥ 80 | 
3 |  | 3.23 | CCNC(=O)c1cc(Cl)cc(C)c1NC(=O)c1cc(Cn2nnc(C(F)(F)F)n2)nn1-c1ncccc1Br [Example 346] |  |  |  | ≥ 80 | ≥ 80 | ≥ 80 | 
4 |  |  | Cc1cc(F)cc(C(=O)NC2CC2)c1NC(=O)c1cc(Cn2nnnc2C(F)(F)F)nn1-c1ncccc1Cl [Example 169] | 2.57 | ≥ 80 | ≥ 80 | ≥ 80 |  |  | 
5 |  |  | Cc1cc(F)cc(C(=O)NC(C)C2CC2)c1NC(=O)c1cc(Cn2nnc(C(F)(F)F)n2)nn1-c1ncccc1Cl (stereo not shown) [Example 32] | 3.41 | ≥ 80 | ≥ 80 | ≥ 80 |  |  | 
6 |  |  | C=CCNC(=O)c1cc(C#N)cc(C)c1NC(=O)c1cc(Cn2nnc(C(F)(F)F)n2)nn1-c1ncccc1Cl [Example 320] | 2.97 | ≥ 80 | ≥ 80 | ≥ 80 |  |  | 
7 |  |  | Cc1cc(C#N)cc(C(=O)NOC(C)C)c1NC(=O)c1cc(Cn2nnc(C(F)(F)F)n2)nn1-c1ncccc1Cl [Example 398] | 2.88 | ≥ 80 | ≥ 80 | ≥ 80 |  |  | 
8 |  |  | NC(=O)c1cc(Cl)cc(Cl)c1NC(=O)c1cc(Cn2nnc(C(F)(F)F)n2)nn1-c1ncccc1Cl [Example 55] | 2.72 | ≥ 80 | ≥ 80 | ≥ 80 |  |  | 
9 | 3.07 |  | CNC(=O)c1cc(I)cc(C)c1NC(=O)c1cc(Cn2nnnc2C(F)(F)F)nn1-c1ncccc1C(F)(F)F [Example 452] |  |  |  | ≥ 80 | ≥ 80 | ≥ 80 | 
10 |  |  | CCNC(=O)c1cc(C#N)cc(C)c1NC(=O)c1cc(C(C)n2nnnc2C(F)(F)F)nn1-c1ncccc1Cl (stereo not shown) [Example 521] | 2.74 | ≥ 80 | ≥ 80 | ≥ 80 |  |  | 
11 | 3.16 |  | Cc1cc(I)cc(C(=O)NCC#N)c1NC(=O)c1cc(Cn2nnc(C(F)(F)F)n2)nn1-c1ncccc1Br [Example 412] |  |  |  | ≥ 80 | ≥ 80 | ≥ 80 | 
12 |  |  | CC(C)(C)NC(=O)c1cc(Cl)cc(Cl)c1NC(=O)c1cc(Cn2nnnc2C(F)F)nn1-c1ncccc1Cl [Example 471] | 3.05 | ≥ 80 | ≥ 80 | ≥ 80 |  |  | 
13 |  |  | CNC(=O)c1cc(Cl)cc(Cl)c1NC(=O)c1cc(Cn2nnc(C(F)(F)F)n2)nn1-c1ncccc1Cl [Example 54] | 2.93 | ≥ 80 | ≥ 80 | ≥ 80 |  |  | 
14 |  |  | Cc1cc(C#N)cc(C(=O)NC(C)C2CC2)c1NC(=O)c1cc(Cn2nnc(C(F)(F)F)n2)nn1-c1ncccc1Cl (stereo not shown) [Example 20] | 3.33 | ≥ 80 | ≥ 80 | ≥ 80 |  |  | 
15 |  |  | Cc1cc(I)cc(C(=O)NC(C)C)c1NC(=O)c1cc(Cn2nnnc2C(F)(F)F)nn1-c1ncccc1Cl [Example 173] | 3.36 | ≥ 80 | ≥ 80 | ≥ 80 |  |  | 
16 | 2.9 |  | Cc1cc(Cl)cc(C(=O)NC2CC2)c1NC(=O)c1cc(Cn2nnnc2C(F)(F)F)nn1-c1ncccc1Br [Example 487] |  |  |  | ≥ 80 | ≥ 80 | ≥ 80 | 
17 | 2.83 |  | Cc1cc(I)cc(C(N)=O)c1NC(=O)c1cc(Cn2nnnc2C(F)(F)F)nn1-c1ncccc1C(F)(F)F [Example 455] |  |  |  | ≥ 80 | ≥ 80 | ≥ 80 | 

Row | chromatographic logP [1, 5] | chromatographic logP [1, 8] | SMILES | chromatographic logP ([1]; log P) | pest or weed control at 100 g/ha ([2]; in Zea mays) [%] | pest or weed control at 100 g/ha ([3]; in Brassica rapa) [%] | pest or weed control at 100 g/ha [4] [%] | pest or weed control at 100 g/ha [2, 6] [%] | pest or weed control at 100 g/ha [3, 7] [%] | chromatographic logP ([1]; by HPLC according to EEC Directive 79/831 Annex V.A8, read-out: log P)
18 |  | 3.12 | CNC(=O)c1cc(Br)cc(C)c1NC(=O)c1cc(Cn2nnc(C(F)(F)F)n2)nn1-c1ncccc1Br [Example 354] |  |  |  | ≥ 80 | ≥ 80 | ≥ 80 | 
19 |  |  | CSC[C@H](C)NC(=O)c1cc(F)cc(C)c1NC(=O)c1cc(Cn2nnc(C(F)(F)F)n2)nn1-c1ncccc1Cl [Example 43] | 3.31 | ≥ 80 | ≥ 80 | ≥ 80 |  |  | 
20 |  |  | N#CCNC(=O)c1cc(Cl)cc(Cl)c1NC(=O)c1cc(Cn2nnc(C(F)(F)C(F)(F)F)n2)nn1-c1ncccc1Cl [Example 158] | 3.32 | ≥ 80 | ≥ 80 | ≥ 80 |  |  | 
21 |  |  | Cc1cc(Br)cc(C(=O)NC(C)(C)C)c1NC(=O)c1cc(Cn2nnc(C(F)F)n2)nn1-c1ncccc1Cl [Example 309] | 3.36 | ≥ 80 | ≥ 80 | ≥ 80 |  |  | 
22 |  |  | Cc1cc(Br)cc(C(=O)NC2CC2)c1NC(=O)c1cc(Cn2nnc(C(F)(F)F)n2)nn1-c1ncccc1Cl [Example 26] | 3.3 | ≥ 80 | ≥ 80 | ≥ 80 |  |  | 
23 |  |  | Cc1cc(Cl)cc(C(=O)NCC#N)c1NC(=O)c1cc(Cn2nnc(C(F)(F)C(F)(F)C(F)(F)F)n2)nn1-c1ncccc1Cl [Example 8] |  | ≥ 80 | ≥ 80 | ≥ 80 |  |  | 3.65
24 | 2.51 |  | Cc1cc(Br)cc(C(N)=O)c1NC(=O)c1cc(Cn2nnnc2C(F)(F)F)nn1-c1ncccc1Br [Example 498] |  |  |  | ≥ 80 | ≥ 80 | ≥ 80 | 
25 |  |  | Cc1cc(C#N)cc(C(=O)NCC#N)c1NC(=O)c1cc(Cn2nnc(C(F)(F)F)n2)nn1-c1ncccc1Cl [Example 18] | 2.61 | ≥ 80 | ≥ 80 | ≥ 80 |  |  | 
26 |  |  | Cc1cc(Cl)cc(C(=O)NC(C)(C)C)c1NC(=O)c1cc(Cn2nnnc2C(F)F)nn1-c1ncccc1Cl [Example 475] | 3.09 | ≥ 80 | ≥ 80 | ≥ 80 |  |  | 
27 |  |  | CNC(=O)c1cc(C#N)cc(C)c1NC(=O)c1cc(Cn2nnnc2C(F)F)nn1-c1ncccc1Cl [Example 472] | 1.97 | ≥ 80 | ≥ 80 | ≥ 80 |  |  | 
28 |  |  | CNC(=O)c1cc(I)cc(C)c1NC(=O)c1cc(Cn2nnc(C(F)(F)F)n2)nn1-c1ncccc1Cl [Example 65] | 3.21 | ≥ 80 | ≥ 80 | ≥ 80 |  |  | 
29 |  | 3.25 | Cc1cc(Cl)cc(C(=O)NC2CC2)c1NC(=O)c1cc(Cn2nnc(C(F)(F)F)n2)nn1-c1ncccc1Br [Example 335] |  |  |  | ≥ 80 | ≥ 80 | ≥ 80 | 
30 |  |  | Cc1cc(C#N)cc(C(N)=O)c1NC(=O)c1cc(C(C)n2nnc(C(F)(F)F)n2)nn1-c1ncccc1Cl (stereo not shown) [Example 437] | 2.66 | ≥ 80 | ≥ 80 | ≥ 80 |  |  | 
31 | 2.63 |  | Cc1cc(I)cc(C(N)=O)c1NC(=O)c1cc(Cn2nnnc2C(F)(F)F)nn1-c1ncccc1Br [Example 497] |  |  |  | ≥ 80 | ≥ 80 | ≥ 80 | 
32 |  |  | Cc1cc(Br)cc(C(=O)NC(C)C2CC2)c1NC(=O)c1cc(Cn2nnc(C(F)(F)F)n2)nn1-c1ncccc1Cl (stereo not shown) [Example 31] | 3.89 | ≥ 80 | ≥ 80 | ≥ 80 |  |  | 
33 |  |  | Cc1cc(Cl)cc(C(=O)NC2CC2)c1NC(=O)c1cc(Cn2nnnc2C(F)(F)C(F)(F)F)nn1-c1ncccc1Cl [Example 200] | 3.32 | ≥ 80 | ≥ 80 | ≥ 80 |  |  | 
34 | 3.26 |  | CNC(=O)c1cc(I)cc(C)c1NC(=O)c1cc(Cn2nnc(C(F)(F)F)n2)nn1-c1ncccc1Br [Example 410] |  |  |  | ≥ 80 | ≥ 80 | ≥ 80 | 
